Experiment: molar heat capacity at constant pressure
Conditions: Liquid, Flow calorimetry

CCOC(=O)/C=C/c1ccccc1 [ethyl trans-3-phenylpropenoate]
Conditions	molar heat capacity at constant pressure [J/K/mol]
306.7 K, 100 kPa	299.7
306.7 K, 3970 kPa	297.7
306.8 K, 7840 kPa	297.2
306.9 K, 11640 kPa	295.5
307.1 K, 15780 kPa	294.4
315.8 K, 100 kPa	302.2
315.8 K, 4120 kPa	301.9
315.9 K, 8120 kPa	300.4
316 K, 11870 kPa	299.4
316.1 K, 15790 kPa	297.4
325.2 K, 100 kPa	307.1
325.5 K, 3970 kPa	304.6
325.6 K, 8000 kPa	303
325.8 K, 11720 kPa	301.8
325.8 K, 16030 kPa	301
334.6 K, 100 kPa	311.1
334.8 K, 3970 kPa	309.5
334.9 K, 8070 kPa	308
335 K, 11750 kPa	306.6
335.1 K, 16080 kPa	303.6
345.1 K, 100 kPa	315.3
345.2 K, 3910 kPa	313.4
345.3 K, 7970 kPa	312
345.4 K, 11840 kPa	310.1
345.6 K, 15760 kPa	308.2
355.3 K, 11990 kPa	313.5
355.5 K, 16020 kPa	312.1
355.6 K, 100 kPa	320.2
355.7 K, 3930 kPa	316.6
355.8 K, 7990 kPa	315.4
366 K, 100 kPa	324.5
366.3 K, 4210 kPa	321.3
366.5 K, 8030 kPa	319.6
366.6 K, 12140 kPa	318.6
366.9 K, 16090 kPa	316.8
375.6 K, 100 kPa	328.3
375.8 K, 4120 kPa	326
375.9 K, 8030 kPa	323.8
376.2 K, 12180 kPa	321.6
376.4 K, 16170 kPa	320.4
385.6 K, 100 kPa	332.5
385.9 K, 4170 kPa	330.4
386.1 K, 8090 kPa	329.1
386.3 K, 12160 kPa	327.2
386.5 K, 16040 kPa	325.7

CCCCCCC(=O)OCC [ethyl heptanoate]
Conditions	molar heat capacity at constant pressure [J/K/mol]
305.4 K, 100 kPa	318.3
305.4 K, 4040 kPa	317.7
305.4 K, 8190 kPa	317.3
305.4 K, 12090 kPa	316.8
305.5 K, 16070 kPa	316.4
315.7 K, 100 kPa	322.5
315.8 K, 4190 kPa	322
315.9 K, 8150 kPa	321.6
315.9 K, 12260 kPa	320.5
316 K, 16160 kPa	319.6
326.2 K, 16030 kPa	323.6
326.5 K, 100 kPa	326.8
326.5 K, 4140 kPa	325.9
326.6 K, 8170 kPa	325.2
326.6 K, 12110 kPa	324.3
335.3 K, 100 kPa	330.3
335.3 K, 4060 kPa	330.1
335.4 K, 8050 kPa	328.6
335.4 K, 12030 kPa	327.6
335.5 K, 16070 kPa	326.9
345.1 K, 100 kPa	334.2
345.2 K, 4070 kPa	333.5
345.6 K, 8230 kPa	332.5
345.7 K, 12160 kPa	332.2
345.7 K, 16230 kPa	330.5
354.2 K, 100 kPa	337.8
354.2 K, 4120 kPa	337.3
354.3 K, 8010 kPa	336.5
354.4 K, 12390 kPa	335.6
354.5 K, 16250 kPa	334.5
364.9 K, 100 kPa	342.1
365.3 K, 3870 kPa	341.3
365.6 K, 8320 kPa	340.3
365.7 K, 12160 kPa	339.5
365.8 K, 15950 kPa	338.3
374.8 K, 100 kPa	346.1
375 K, 3980 kPa	345.5
375.5 K, 8020 kPa	344
375.7 K, 12070 kPa	342.6
375.9 K, 16040 kPa	341.4
384 K, 100 kPa	349.8
385 K, 4020 kPa	349.1
385.4 K, 8040 kPa	347.1
385.5 K, 11880 kPa	346.1
385.7 K, 15890 kPa	345.6

Reference: the NIST ThermoML archive (doi:10.1016/j.jct.2015.09.031)
